Reference: US10226462B2, “Detection and treatment of excessive hair shedding” (Samson Clinical Pty Ltd, priority 2014, dated 2019)

What was measured:
[1] = system: telogen effluvium; conditions: treatments commonly used for AGA; cited from earlier work
[2] = system: Monilethrix; assay: Oral minoxidil in two cases of monilethrix
Description: Patient 6: A person presented with lifelong fragile, sparse, and thin hair. […] Comorbidities included Crohn's disease and impaired hearing. Their child and two sons had also been diagnosed with monilethrix and suffered from sparse and fragile hair. […] As the application of topical minoxidil could potentially accentuate breakage of fragile hairs, treatment was commenced with oral minoxidil 0.25 mg daily.
Patient 7: A person with fragile, thin and sparse hair since childhood secondary to monilethrix presented for assessment and treatment. […] As the application of topical minoxidil could potentially accentuate breakage of fragile hairs oral Minoxidil 0.25 mg daily was commenced.

[3] = system: chronic telogen effluvium; assay: Once daily oral minoxidil in women with chronic telogen effluvium (CTE), hair shedding score and safety; conditions: for Mean HSS: 36 women, oral 0.5-2.5 mg daily, baseline 5.63; for Reduction in mean HSS: p<0.001
Description: The goals of this study were to review the use of oral minoxidil in CTE with respect to the response to hair shedding and safety. Hair shedding was assessed by patient self-reported Hair shedding Scores (HSS) using the visual analogue scale as described in Example 1 and FIG. 1. Hair Shedding Scores (HSS) were on the scale of 1 to 6 (6 being the highest level of hair shedding). Patients included in this study were women with a diagnosis of CTE based on >6 month history of increased telogen hair shedding, a HSS of 4-6, no visible mid frontal scalp hair loss (Sinclair stage 1) and no hair follicle miniaturization on scalp biopsy.
Data pertaining to dosage of oral minoxidil, previous treatments including topical minoxidil use, blood pressure, side effects, hypertrichosis and trichodynia were collected for each patient. Patient-reported responses were based on a visual analogue scale HSS at each consultation. The HSS prior to starting oral minoxidil, and scores at 6 and 12 months were extracted for analysis. Patients were treated with a once daily oral minoxidil (0.5 to 2.5 mg).
Data were analysed using Matlab R2014b statistical software. Hair shedding scores at baseline, 6 and 12 months were analysed using the Wilcoxon rank sum test for pair-wise comparisons. Differences in blood pressure at baseline and 6 months were also analysed using Wilcoxon rank sum test. Relationship between outcomes (HSS at six and 12 months) and individual patient specific variables including previous use of […], duration of disease, dosage and HSS at baseline were analysed using a generalised linear regression model.

[4] = system: bitemporal hair loss in female pattern hair loss; assay: Oral minoxidil 0.25 mg daily in women with bitemporal recession in female pattern hair loss; assay type: in vivo, human; conditions: for Hair shedding (HSS stage): baseline stage 6
[5] = system: androgenetic alopecia (male pattern hair loss); assay: Pilot open study of oral minoxidil 0.25 mg once daily for 24 weeks in men with AGA; assay type: in vivo, human; conditions: 0.25 mg daily
Description: This study was a pilot, prospective, open, observational study conducted at the Sinclair Dermatology Clinic in Melbourne, Australia. Participants were dosed for 24 weeks. Treatment naïve men with Hamilton Norwood staged III vertex, IV or V were treated for 24 weeks with minoxidil 0.25 mg once daily. The primary efficacy endpoint was investigators' photographic assessment at week 24 and adverse events. Investigator photographic assessment was conducted by a single investigator grading the photographs using a 3 point rating scale, ranging from “decreased hair growth” to “increased hair growth,” centred at no change. Any reports of adverse events were collected at every visit.

In the case of `CC(=O)S[C@@H]1CC2=CC(=O)CC[C@]2(C)[C@H]2CC[C@@]3(C)[C@@H](CC[C@@]34CCC(=O)O4)[C@H]12` [spironolactone], the “Efficacy in TE” value [1] is listed as “do not work”.

In the case of `CC(C)(C)NC(=O)[C@H]1CC[C@H]2[C@@H]3CC[C@H]4NC(=O)C=C[C@]4(C)[C@H]3CC[C@]12C` [finasteride], the “Efficacy in TE” value [1] is listed as “do not work”.

In the case of `Nc1cc(N2CCCCC2)nc(N)[n+]1[O-]` [minoxidil], the Side effects ([2]; Patient 6, oral 0.25 mg daily) is reported as “did not experience any side effects or complication”, the Tolerability ([2]; low doses, oral) is reported as “well tolerated” and the “Patients in whom the HSS improved” value ([3]; after 6 months, of 36) is reported as 31. For the same compound, the “Patients in whom the HSS remained the same” value ([3]; after 6 months, of 36) was 4, the “Mean HSS” value ([3]; at 6 months) was 3.9 and the “Mean HSS” value ([3]; at 12 months) was 3.05. For the same compound, the “Patients in whom the HSS increased” value ([3]; at the 6-month mark, of 36) was 1, the “Patients improved from baseline” value ([3]; at the 12 month mark, of 36) was 33 and the “Reduction in mean HSS” value ([3]; baseline to 6 months) was 1.7. For the same compound, the “Reduction in mean HSS” value ([3]; baseline to 12 months) was 2.58, the “Mean reduction in HSS” value ([3]; between 6 months and 12 months, p=0.003) was 0.89 and the “Lowest blood pressure recorded” value ([3]; in vivo) was 90/70. The “Mean change in blood pressure, diastolic” value ([3]; in vivo) was “plus 2.1 mmHg”, the “Mean change in blood pressure, systolic” value ([3]; in vivo) was “minus 0.5 mmHg” and the “Mean dose in patient group with hypertrichosis (Yes)” value ([3]; in vivo) was 1.46 mg. For the same compound, the “Mean dose in patient group with trichodynia (Yes)” value ([3]; in vivo) was 1.19 mg, the “Mean dose in patient group without hypertrichosis (No)” value ([3]; in vivo) was 0.99 mg and the “Mean dose in patient group without trichodynia (No)” value ([3]; in vivo) was 1.11 mg. The “Patients who developed ankle oedema” value ([3]; of 36) was “One”, the “Patients who developed any blood test abnormalities” value ([3]; of 36) was “No patients” and the “Women who developed facial hypertrichosis” value ([3]; of 36) was “Thirteen”. For the same compound, the “Patients who developed transient postural dizziness” value ([3]; of 36, resolved with continued treatment) was “Two”, the “Difference between blood pressure at baseline and 6 months” value ([3]; p>0.05) was “no significant differences” and the “Mean reduction in HSS” value ([3]; patients who had not used topical minoxidil, at 12 months) was 2.32. For the same compound, the “Mean reduction in HSS” value ([3]; patients who had not used topical minoxidil, at six months) was 1.56, the “Mean reduction in HSS” value ([3]; patients who had previously used topical minoxidil, at 12 months) was 3.18 and the “Mean reduction in HSS” value ([3]; patients who had previously used topical minoxidil, at six months) was 2. For the same compound, the Side-effects ([4]; Patient 8) was “no side-effects”, the “Hair shedding (HSS stage)” value ([4]; Patient 8, 0.25 mg, review at 3 months) was 5 and the Blood pressure ([4]; Patient 8, review at 3 months, baseline 110/70) was 115/65. The Facial hypertrichosis ([4]; Patient 8, review at 3 months, present at baseline) was “unaltered”, the “Side effects or complications of treatment” value ([4]; Patient 9) was “not experienced any side effects or complications” and the “Hair shedding (HSS stage)” value ([4]; Patient 9, 0.25 mg once daily with continued spironolactone 100 mg daily, review at 6 weeks) was 4. The Blood pressure ([4]; Patient 9, review at 6 weeks, baseline 140/85) was 125/85, the Tolerability ([5]; patients with MPHL) was “well tolerated” and the Adverse events ([5]; six men, 24 weeks) was “No adverse events”.

In the case of `CC(=O)O[C@]1(C(C)=O)CC[C@H]2[C@@H]3C=C(Cl)C4=CC(=O)[C@@H]5C[C@@H]5[C@]4(C)[C@H]3CC[C@@]21C` [cyproterone acetate], the “Efficacy in TE” value [1] is listed as “do not work”.
